IC50 data for two compounds are collected here from patent publication US12178791B2, “Haloallylamine sulfone derivative inhibitors of lysyl oxidases and uses thereof” (Syntara Limited, priority 2018, dated 2024).

pIC50: −log10 of the molar value. Counter-ions that a name gives are not always drawn. Like-named read-outs stand apart in the source and are kept apart here.

Holding throughout (type): biochemical
The target in assay [1] is Human recombinant SSAO/VAP-1 (Homo sapiens (Human), UniProt Q16853). The assay can be described thus: Inhibition of human recombinant SSAO/VAP-1. A digest of the protocol: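 Purified enzyme (residues 34-763, expressed in CHO Lec8 cells; 0.25 μg/mL in 0.1 M sodium phosphate pH 7.4) was preincubated with compound 30 min at 37 °C. An added mix held 600 μM benzylamine, 120 μM Amplex Red and 1.5 U/mL HRP. Fluorescence (ex 565/em 590 nm) was read every 2.5 min for 30 min at 37 °C, and IC50 was derived from kinetic slopes over 4-11-point curves.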

The target of assay [2] is Recombinant human MAO-B (Homo sapiens (Human), UniProt P27338). The assay can be described thus: Inhibition of human recombinant MAO-B. To be noted: benzylamine 100 μM. The procedure: The specificity of the compounds of this invention was tested by determining their ability to inhibit MAO-B activities in vitro. Recombinant human MAO-B (0.06 mg/mL; Sigma Aldrich) was used as source of MAO-B enzyme activities. The assay was performed in a similar way as for human SSAO/VAP-1 (Example 28) except, the substrate benzylamine was used at 100 μM.

Assay [3] addresses Bovine LOX (Bos taurus (Bovine), UniProt P33072). The assay can be described thus: LOX inhibition, Amplex Red oxidation assay. To be noted: 30 min preincubation at 37 °C, putrescine substrate. A digest of the protocol: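 Bovine LOX in 1.2 M urea, 50 mM sodium borate pH 8.2, with 1 μM mofegiline and 0.5 mM pargyline unless recombinant or purified. The added mix held putrescine at twice KM (20 mM for LOX), 120 μM Amplex Red and 1.5 U/mL HRP.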

[4] abbreviates: 30 min preincubation at 37 °C, benzylamine 600 μM, read-out: SSAO/VAP-1 Activity IC50.

Chain of Human recombinant SSAO/VAP-1 (Q16853 34-763): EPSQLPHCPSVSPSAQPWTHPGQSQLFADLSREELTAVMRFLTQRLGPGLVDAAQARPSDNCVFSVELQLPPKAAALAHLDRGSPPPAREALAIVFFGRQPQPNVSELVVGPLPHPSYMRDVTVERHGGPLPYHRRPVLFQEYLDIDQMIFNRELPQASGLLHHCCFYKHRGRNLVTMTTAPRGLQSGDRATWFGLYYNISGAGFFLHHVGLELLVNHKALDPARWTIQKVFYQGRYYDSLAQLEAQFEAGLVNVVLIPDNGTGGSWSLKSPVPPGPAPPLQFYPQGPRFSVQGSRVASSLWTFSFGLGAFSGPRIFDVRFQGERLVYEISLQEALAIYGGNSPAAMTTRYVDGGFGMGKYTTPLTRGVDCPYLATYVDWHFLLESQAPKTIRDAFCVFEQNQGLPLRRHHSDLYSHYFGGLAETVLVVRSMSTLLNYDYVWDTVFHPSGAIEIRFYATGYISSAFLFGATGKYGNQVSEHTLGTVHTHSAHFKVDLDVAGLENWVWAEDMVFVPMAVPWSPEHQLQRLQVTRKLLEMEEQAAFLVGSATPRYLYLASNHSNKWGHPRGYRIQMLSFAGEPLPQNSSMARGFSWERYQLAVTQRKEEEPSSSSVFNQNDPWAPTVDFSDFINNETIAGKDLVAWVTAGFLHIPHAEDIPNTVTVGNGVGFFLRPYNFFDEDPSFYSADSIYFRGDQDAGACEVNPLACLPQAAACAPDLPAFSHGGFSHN
Chain of Recombinant human MAO-B (P27338 whole entry): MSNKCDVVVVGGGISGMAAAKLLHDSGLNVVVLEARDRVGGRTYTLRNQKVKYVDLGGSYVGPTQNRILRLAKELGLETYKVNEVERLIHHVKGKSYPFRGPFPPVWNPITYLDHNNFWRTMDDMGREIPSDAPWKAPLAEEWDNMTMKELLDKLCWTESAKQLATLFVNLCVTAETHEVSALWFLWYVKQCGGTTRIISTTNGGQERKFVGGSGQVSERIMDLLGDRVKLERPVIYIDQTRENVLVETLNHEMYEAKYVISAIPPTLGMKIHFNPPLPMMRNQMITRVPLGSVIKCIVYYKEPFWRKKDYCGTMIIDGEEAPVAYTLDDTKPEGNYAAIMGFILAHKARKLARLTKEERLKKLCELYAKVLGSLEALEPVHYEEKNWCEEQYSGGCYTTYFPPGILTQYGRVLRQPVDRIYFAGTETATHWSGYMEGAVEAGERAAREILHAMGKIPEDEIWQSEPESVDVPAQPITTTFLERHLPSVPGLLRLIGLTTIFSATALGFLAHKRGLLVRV
Chain of Bovine LOX (P33072 170-418): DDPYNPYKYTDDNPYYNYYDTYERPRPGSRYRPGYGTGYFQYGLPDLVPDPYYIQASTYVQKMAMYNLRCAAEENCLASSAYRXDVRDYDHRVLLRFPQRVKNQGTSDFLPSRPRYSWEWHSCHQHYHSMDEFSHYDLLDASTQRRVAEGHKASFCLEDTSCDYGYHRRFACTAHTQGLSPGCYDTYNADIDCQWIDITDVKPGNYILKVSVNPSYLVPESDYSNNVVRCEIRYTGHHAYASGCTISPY

In the case of `NC/C=C(\F)CS(=O)(=O)c1ccccc1` [Compound 1, (Z)-3-fluoro-4-(phenylsulfonyl)but-2-en-1-amine hydrochloride], the pIC50 was < 4.52 in assay [1] (setting [4]); < 4.00 in assay [1] (second Table 6 (Example 38), read-out: Recombinant human SSAO (rhSSAO) inhibition (IC50)); < 4.52 in assay [2]; > 5.00 in assay [3].

Turning to `NC/C=C(\F)CS(=O)(=O)c1cccc2cccnc12` [Compound 33, (Z)-3-fluoro-4-(quinolin-8-ylsulfonyl)but-2-en-1-amine dihydrochloride], the values for the pIC50 in assay [1] (setting [4]), in assay [2] and in assay [3] were < 5.00, < 4.52 and > 5.00, respectively.
